Biological target: T1, TEK (TIE2) Y1108F (Homo sapiens, UniProt Q02763, Y1108F)
T1 construct: purchased Thermo Fisher Scientific (Life Technologies) SelectScreen
Test: SelectScreen LanthaScreen
Format: binding
Details: read-out: % displacement
Summary of the method: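 Percent values come from Thermo SelectScreen profiling of NU5455, combining activity and binding assays. CSF1R was run in Z'LYTE format at Km app ATP, and CAMK1 in Adapta format with ATP listed at 10.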

T1 sequence (Q02763 23-1124 Y1108F): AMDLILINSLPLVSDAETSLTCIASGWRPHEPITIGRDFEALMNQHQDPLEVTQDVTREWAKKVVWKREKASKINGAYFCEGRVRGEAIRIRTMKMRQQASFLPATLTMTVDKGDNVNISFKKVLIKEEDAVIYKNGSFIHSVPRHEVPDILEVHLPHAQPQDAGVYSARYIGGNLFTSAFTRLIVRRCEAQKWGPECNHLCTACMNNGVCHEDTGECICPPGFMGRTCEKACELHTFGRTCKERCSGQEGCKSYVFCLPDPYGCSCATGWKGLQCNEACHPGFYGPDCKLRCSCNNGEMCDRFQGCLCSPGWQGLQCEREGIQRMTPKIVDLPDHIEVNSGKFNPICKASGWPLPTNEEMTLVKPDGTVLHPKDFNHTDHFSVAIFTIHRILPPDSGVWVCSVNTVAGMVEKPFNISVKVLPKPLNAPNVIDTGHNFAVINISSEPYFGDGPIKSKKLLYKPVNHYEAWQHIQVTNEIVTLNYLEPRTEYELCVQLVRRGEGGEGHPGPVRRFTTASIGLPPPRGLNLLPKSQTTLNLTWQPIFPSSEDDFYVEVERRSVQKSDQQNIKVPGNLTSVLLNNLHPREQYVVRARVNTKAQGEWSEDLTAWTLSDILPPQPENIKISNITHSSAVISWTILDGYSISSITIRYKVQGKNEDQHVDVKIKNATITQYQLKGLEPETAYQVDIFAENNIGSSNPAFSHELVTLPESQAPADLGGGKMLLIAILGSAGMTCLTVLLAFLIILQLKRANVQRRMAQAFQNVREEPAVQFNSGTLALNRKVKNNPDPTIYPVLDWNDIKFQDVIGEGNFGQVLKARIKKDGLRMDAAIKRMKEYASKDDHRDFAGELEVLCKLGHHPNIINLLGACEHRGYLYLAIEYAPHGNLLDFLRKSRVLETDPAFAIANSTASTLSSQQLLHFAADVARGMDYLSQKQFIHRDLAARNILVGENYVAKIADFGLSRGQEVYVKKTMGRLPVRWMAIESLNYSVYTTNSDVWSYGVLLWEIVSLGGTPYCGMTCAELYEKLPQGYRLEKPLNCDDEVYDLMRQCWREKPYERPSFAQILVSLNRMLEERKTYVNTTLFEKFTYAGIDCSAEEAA

With `CN(C(=O)CN1CCOCC1)c1ccc2sc3c(-c4cccc5c(=O)cc(N6CC7CCC(C6)O7)oc45)cccc3c2c1` [NU5455] as the molecule, how does the inhibition at 1 µM read?
The inhibition at 1 µM was -0.3%.

Source: article PMC6934184, “Selective DNA-PKcs inhibition extends the therapeutic index of localized radiotherapy and chemotherapy” (The Journal of Clinical Investigation, 2019)
